# In patent US4985447A, “Certain benzoquinones, naphthoquinones and derivatives thereof which exhibit thromboxane A2 synthetase inhibition or receptor antagonism and the like” (Takeda Chemical Industries, Ltd., priority 1986, dated 1991):
# Where “and” joins values, the source holds several entries; their conditions need not be identical. Equal entries are not always repeated.
# What was measured:
# [1] = Proteinuria improving effect in rat with adriamycin-induced nephrosis; type: in vivo, rat (Sprague-Dawley)
# Method: Procedure: The experiment was carried out with Sprague-Dawley rat (male, 5 weeks old) according to the method of T. Bertani et al.[(Laboratory Invest.4, 16, (1982)]. Adriamycin was given intravenously at the dose of 7.5 mg/kg and two weeks later urine was collected for 24 hours after water was loaded orally at 10 ml/kg. Total urinary protein and albumin excreted in the urine were determined; rats of which total urinary protein was 20 mg/100g/24 hours or more were chosen for the experiment. The control group received water (vehicle) alone at 10 ml/kg/day, and the Compound No.18 group received the Compound at the dose of 50 mg/kg/day (10 ml/kg, water) once a day for 2 weeks. After 1 week or 2 weeks of treatment with the drug, 24 hour-urine was collected to determine total urinary protein and albumin. Two weeks later blood was taken from the thoracic aorta of the rat under pentobarbital anesthesia (50 mg/kg, intraperitoneal injection) to determine plasma cholesterol level.
# [2] = Improving effect on glomerulonephritis in rat; type: in vivo, rat (Sprague-Dawley); conditions: for total urinary protein / urinary albumin: 50 mg/kg/day, p.o.
# Method: Procedure: Nephritic rat was prepared according to the method of Matsunaga et al.[Folia pharmacol. japon. 78, 491,(1981)]using Sprague-Dawley rat (male, 5 weeks old). That is, the rat was immunized preliminarily by subcutaneous injection of a mixture of 3 mg of rabbit serum albumin (RSA) and an equal volume of Freund's complete adjuvant, and from two weeks after that RSA was given intravenously at the dose of 1 mg/rat three times a week for 8 weeks. Then 24 hour-urine was collected to determine total urinary protein and urinary albumin. Rats of which total urinary protein was 20 mg/100g/24hr or more were chosen for the experiment. The control group received water (vehicle) alone at 10 ml/kg/day, and the Compound No.18 group received the Compound at the dose of 50 mg/kg/day (10 ml/kg, water) once a day for 2 weeks. After 1 week and 2 weeks of treatment, 24 hour-urine was collected to determine total urinary protein and urinary albumin.
# [3] = Toxicological study in the rat; type: in vivo, rat (male Wistar); design: key to Spleen: Widening of red pulp / Spleen: Congestion (dilatation of sinus) / Spleen: Extramedullary hematopoiesis / Spleen: Atrophy of white pulp / Liver: Parenchymal cell alteration / Kidney: Dilatation of pelvis / Heart: Cardiac cell alteration / Lung: Alteration / Bone marrow: Proliferation of erythroblast: -: negative; +: mild; ++: moderate; +++: severe; conditions: for Adrenals weight / Body weight (B.V.) / Brains weight / Gonads weight / Heart weight / Hypophy. weight / Kidney weight / Liver weight / Lung weight / Spleen weight / Thymus weight / Thyroid weight / Bone marrow: Proliferation of erythroblast / Heart: Cardiac cell alteration / Kidney: Dilatation of pelvis / Liver: Parenchymal cell alteration / Lung: Alteration / Spleen: Atrophy of white pulp / Spleen: Congestion (dilatation of sinus) / Spleen: Extramedullary hematopoiesis / Spleen: Widening of red pulp: 2 weeks; for Adrenals weight / Body weight (B.V.) / Brains weight / Gonads weight / Heart weight / Hypophy. weight / Kidney weight / Liver weight / Lung weight / Spleen weight / Thymus weight / Thyroid weight: mean; for A/G ratio / AI.P / Albumin / Calcium / GOT / GPK / GPT / Glucose / Greatinine / LAP / LDH / Total bilirubin / Total cholesterol / Total protein / Urea nitrogen: mean ± S.D.
# Method: Procedure: Five weeks old, male Wistar rats were used. The rats were given the Compound 18 orally once a day for 14 days at doses of 100 and 300 mg/kg/10 ml of water as a suspension with 5% gum arabic. Control rats were given vehicle (10 ml/kg of water) alone. After fasting a night following the final dose of a 2 week treatment, the rats were anesthetized with ethyl ether and the blood was collected into a heparinized syringe from the abdominal aorta and the plasma was separated for the examination of blood chemistry. Blood parameters such as total protein, glucose, calcium, urea nitrogen, creatinine, total cholesterol, total bilirubin, alkaline phosphatase (ALP), leucine aminopeptidase (LAP), lactate dehydrogenase (LDH), glutamic oxaloacetic transaminase (GOT), glutamic pyruvic transaminase (GPT), creatine phosphokinase (CPK), albumin and A/G ratio were analysed by use of auto-analyzer (Hitachi 716). The organs such as liver, kidney, heart, lung, spleen, adrenal glands, thymus, testris, brain and hypophysis were excised and weighed. Some organs (liver, kidney, heart, lung, spleen) were fixed in 10% neutral formalin solution for histological examinations. Bone marrow was fixed as well without weighing. These fixed organs were stained with Hematoxyline-Eosin for histological examinations.
# [4] = 50 mg/kg/day, p.o., 1 week after
# [5] = 50 mg/kg/day, p.o., 2 weeks after
# [6] = 50 mg/kg/day, p.o., before treatment
# [7] = 1 week after, *p<0.05 against pretreatment
# [8] = 2 weeks after, *p<0.05 against pretreatment
# [9] = 100 mg/kg/day, single rats No. 7-10
# [10] = 300 mg/kg/day, single rats No. 11-15
structure (smiles),measurement,setting,value
CC1=C(C)C(=O)C(Cc2cccnc2)=C(C)C1=O [Compound No. 18],effect on adriamycin-induced nephrosis (in words),[1]; 50 mg/kg/day for 2 weeks,improves adriamycin-induced nephrosis
same,total urinary protein versus pretreatment value (in words),[1]; 50 mg/kg/day for 2 weeks,neither total urinary protein nor urinary albumin differed from the respective pretreatment values
same,urinary albumin versus pretreatment value (in words),[1]; 50 mg/kg/day for 2 weeks,neither total urinary protein nor urinary albumin differed from the respective pretreatment values
same,total urinary protein,[1]; [4],55 ± 17 mg/100 g/24 hr
same,urinary albumin,[1]; [4],25 ± 10
same,total urinary protein,[1]; [5],59 ± 9 mg/100 g/24 hr
same,urinary albumin,[1]; [5],31 ± 7
same,serum cholesterol,"[1]; 50 mg/kg/day, p.o., 2 weeks after, #p<0.05 against control",49 ± 4 mg/dL
same,total urinary protein,[1]; [6],76 ± 28 mg/100 g/24 hr
same,urinary albumin,[1]; [6],28 ± 14
same,serum cholesterol level (in words),"[1]; after 2 weeks, 50 mg/kg/day",decreased remarkably
same,effect on nephritis (in words),[2]; 50 mg/kg/day for 2 weeks,improves nephritis
same,total urinary protein compared with control group (in words),[2]; 50 mg/kg/day for 2 weeks,decreased total urinary protein
same,urinary albumin compared with control group (in words),[2]; 50 mg/kg/day for 2 weeks,decreased total urinary protein and urinary albumin
same,total urinary protein,[2]; [7],37 ± 8 mg/100 g/24 hr
same,urinary albumin,[2]; [7],17 ± 5
same,total urinary protein,[2]; [8],48 ± 16 mg/100 g/24 hr
same,urinary albumin,[2]; [8],24 + 12
same,total urinary protein,[2]; before treatment,75 ± 28 mg/100 g/24 hr
same,urinary albumin,[2]; before treatment,45 ± 21
same,Adrenals weight,[3]; 100 mg/kg orally,47.7 mg
same,Body weight (B.V.),[3]; 100 mg/kg orally,170.3 g
same,Brains weight,[3]; 100 mg/kg orally,1.747 g
same,Gonads weight,[3]; 100 mg/kg orally,1.906 g
same,Heart weight,[3]; 100 mg/kg orally,0.709 g
same,Hypophy. weight,[3]; 100 mg/kg orally,8.3 mg
same,Kidney weight,[3]; 100 mg/kg orally,1.579 g
same,Liver weight,[3]; 100 mg/kg orally,6.347 g
same,Lung weight,[3]; 100 mg/kg orally,0.872 g
same,Spleen weight,[3]; 100 mg/kg orally,0.673 g
same,Thymus weight,[3]; 100 mg/kg orally,0.45 g
same,Thyroid weight,[3]; 100 mg/kg orally,11.4 mg
same,Bone marrow: Proliferation of erythroblast,[3]; [9],-
same,Heart: Cardiac cell alteration,[3]; [9],-
same,Kidney: Dilatation of pelvis,[3]; [9],- (2×) and ++ and +
same,Liver: Parenchymal cell alteration,[3]; [9],-
same,Lung: Alteration,[3]; [9],-
same,Spleen: Atrophy of white pulp,[3]; [9],-
same,Spleen: Congestion (dilatation of sinus),[3]; [9],-
same,Spleen: Extramedullary hematopoiesis,[3]; [9],+
same,Spleen: Widening of red pulp,[3]; [9],-
same,A/G ratio,[3]; 100 mg/kg/day,1.65 ± 0.05
same,AI.P,[3]; 100 mg/kg/day,194 ± 32 U/I
same,Albumin,[3]; 100 mg/kg/day,3.43 ± 0.05 g %
same,Calcium,[3]; 100 mg/kg/day,9.84 ± 0.41 mg %
same,GOT,[3]; 100 mg/kg/day,57 ± 6 U/I
same,GPK,[3]; 100 mg/kg/day,44 ± 5 U/I
same,GPT,[3]; 100 mg/kg/day,13 ± 1 U/I
same,Glucose,[3]; 100 mg/kg/day,104 ± 11 mg %
same,Greatinine,[3]; 100 mg/kg/day,0.5 ± 0.0 mg %
same,LAP,[3]; 100 mg/kg/day,20 ± 1 U/I
same,LDH,[3]; 100 mg/kg/day,86 ± 22 U/I
same,Total bilirubin,[3]; 100 mg/kg/day,0.27 ± 0.03 mg %
same,Total cholesterol,[3]; 100 mg/kg/day,47 ± 7 mg %
same,Total protein,[3]; 100 mg/kg/day,5.51 ± 0.11 g %
same,Urea nitrogen,[3]; 100 mg/kg/day,15.8 ± 0.7 mg %
same,body weight (in words),[3]; 300 mg/kg,"tended to have a lower body weight, but the change was not significant"
same,splenomegaly (in words),[3]; 300 mg/kg,one of 5 rats showed a mild splenomegaly
same,Adrenals weight,[3]; 300 mg/kg orally,43.0 mg
same,Body weight (B.V.),[3]; 300 mg/kg orally,162.0 g
same,Brains weight,[3]; 300 mg/kg orally,1.714 g
same,Gonads weight,[3]; 300 mg/kg orally,1.873 g
same,Heart weight,[3]; 300 mg/kg orally,0.913 g
same,Hypophy. weight,[3]; 300 mg/kg orally,8.1 mg
same,Kidney weight,[3]; 300 mg/kg orally,1.508 g
same,Liver weight,[3]; 300 mg/kg orally,6.264 g
same,Lung weight,[3]; 300 mg/kg orally,0.929 g
same,Spleen weight,[3]; 300 mg/kg orally,0.703 g
same,Thymus weight,[3]; 300 mg/kg orally,0.447 g
same,Thyroid weight,[3]; 300 mg/kg orally,12.0 mg
same,extramedullary hematopoiesis (in words),"[3]; 300 mg/kg, one of 5 rats",increased extramedullary hematopoiesis
same,Bone marrow: Proliferation of erythroblast,[3]; [10],-
same,Heart: Cardiac cell alteration,[3]; [10],-
same,Kidney: Dilatation of pelvis,[3]; [10],- (4×) and +
same,Liver: Parenchymal cell alteration,[3]; [10],-
same,Lung: Alteration,[3]; [10],-
same,Spleen: Atrophy of white pulp,[3]; [10],- (4×) and +
same,Spleen: Congestion (dilatation of sinus),[3]; [10],-
same,Spleen: Extramedullary hematopoiesis,[3]; [10],+ (4×) and ++
same,Spleen: Widening of red pulp,[3]; [10],- (3×) and + (2×)
same,A/G ratio,[3]; 300 mg/kg/day,1.73
same,AI.P,[3]; 300 mg/kg/day,149 U/I
same,Albumin,[3]; 300 mg/kg/day,3.47 ± 0.13 g %
same,Calcium,[3]; 300 mg/kg/day,9.70 ± 0.18 mg %
same,GOT,[3]; 300 mg/kg/day,64 ± 9 U/I
same,GPK,[3]; 300 mg/kg/day,52 ± 9 U/I
same,GPT,[3]; 300 mg/kg/day,14 ± 1 U/I
same,Glucose,[3]; 300 mg/kg/day,97 ± 11 mg %
same,Greatinine,[3]; 300 mg/kg/day,0.4 ± 0.1 mg %
same,LAP,[3]; 300 mg/kg/day,19 ± 1 U/I
same,LDH,[3]; 300 mg/kg/day,99 ± 18 U/I
same,Total bilirubin,[3]; 300 mg/kg/day,0.28 ± 0.02 mg %
same,Total cholesterol,[3]; 300 mg/kg/day,41 ± 14 mg %
same,Total protein,[3]; 300 mg/kg/day,5.48 ± 0.20 g %
same,Urea nitrogen,[3]; 300 mg/kg/day,14.5 ± 0.6 mg %
same,blood chemistry (in words),[3]; 100 and 300 mg/kg,no changes in the blood chemistry
same,organ weight (in words),[3]; 100 and 300 mg/kg,no significant changes in any organ weight
same,histology of the other organs (in words),[3]; after 2 weeks,The other organs showed no changes
